Test results taken from US20150072416A1, “METABOLITE FOR IMPROVING PRODUCTION, MAINTENANCE AND PROLIFERATION OF PLURIPOTENT STEM CELLS, COMPOSITION COMPRISING THE SAME, AND METHOD OF CULTURING PLURIPOTENT STEM CELL USING THE SAME” (KOREA RESEARCH INSTITUTE OF BIOSCIENCE AND BIOTENOLOGY, priority 2012, published 2015).

Key:
[1] = test system: human fibroblasts transfected with reprogramming factors; test: Reprogramming kinetics of hiPSCs (stem cell marker expression, time to colonies); type: cell-based
Description: Total RNA was isolated from produced cells using an RNeasy Mini kit (Qiagen, Valencia, Calif.) and reverse-transcribed using a SuperScript First-strand synthesis system kit (Invitrogen) according to the manufacturer's instruction. Then, semi-quantitative RT-PCR was performed using a platinum Tag SuperMix kit (Invitrogen) under the following conditions: 94° C. for 3 minutes, and then 25-30 cycles, each consisting of 94° C. for 30 sec, 60° C. for 30 sec and 72° C. for 30 sec, followed by extension at 72° C. for 10 minutes. For immunostaining, cells were seeded on Matrigel-coated 4-well Lab-Tek chamber slides (Nunc, Naperville, Ill.) and cultured for 5 days under the indicated conditions. The cells were fixed in 4% paraformaldehyde at room temperature for 15 minutes, and then washed with PBS/0.2% BSA. Next, the cells were passed through PBS/0.2% BSA/0.1% Triton X-100 for 15 minutes, and then incubated with 4% normal donkey serum (Molecular Probes, Eugene, Oreg., USA) in PBS/0.2% BSA at room temperature for 1 hour. The cells were diluted with PBS/0.2% BSA, and then reacted with primary antibody at 4° C. for 2 hours. After washing, the cells were reacted with FITC- or Alexa594-conjugated secondary antibody (Invitrogen) in PBS/0.2% BSA at room temperature for 1 hour. The cells were counter-stained with 10 μg/ml DAPI. […] From day 5 of culture (D5), the expression levels of the stem cell markers Nanog and Tra-1-60 in the cell group treated with nicotinamide increased by 3 times and 8 times, respectively, compared to those in the untreated group (FIG. 6).

p53, p21 and p16 = test: Expression of senescence-associated signaling factors (immunostaining, Western blot, real-time PCR); type: cell-based, human
Description: Total RNA was isolated from produced cells using an RNeasy Mini kit (Qiagen, Valencia, Calif.) and reverse-transcribed using a SuperScript First-strand synthesis system kit (Invitrogen) according to the manufacturer's instruction. Then, semi-quantitative RT-PCR was performed using a platinum Tag SuperMix kit (Invitrogen) under the following conditions: 94° C. for 3 minutes, and then 25-30 cycles, each consisting of 94° C. for 30 sec, 60° C. for 30 sec and 72° C. for 30 sec, followed by extension at 72° C. for 10 minutes.
For immunostaining, cells were seeded on Matrigel-coated 4-well Lab-Tek chamber slides (Nunc, Naperville, Ill.) and cultured for 5 days under the indicated conditions. […]
Cells were lysed with RIPA buffer (containing 50 mM Tris, pH 8.0, 150 mM NaCl, 1% NP-40, 0.1% SDS, 0.5% deoxycholic acid, 1 mM PMSF) and mixed with a protease inhibitor (Roche Applied Science, Indianapolis, Ind.) on ice for 15 minutes, followed by centrifugation at 20,000×g at 4° C. for 10 minutes. The supernatant was re-centrifuged for 10 minutes, and the protein concentration was measured using a BCA protein assay kit (Pierce, Rockford, Ill.). […] The density of the bands was analyzed using Image Gauge software (Fuji Photo Film GMBH, D) and normalized to the bands of the loading control (β-actin). […]

[2] = test system: promoter regions of Nanog and Oct4; test: Chromatin immunoprecipitation of histone 3 methylation at Nanog and Oct4 promoters; type: cell-based, human
Description: Formaldehyde was added to a cell culture to fix the cells, and then the chromatin was fragmented to a suitable size by sonication. The chromatin was immunoprecipitated with antibodies to lysine residues 4 and 27 of histone 3, and then the DNA was collected and amplified by real-time polymerase chain reaction using primers for the Oct4 and Nanog promoter regions.

[3] = test system: human fibroblasts transfected with reprogramming factor OSKM; test: Measurement of reactive oxygen species during reprogramming; type: cell-based; conditions: 1 mM, day 19 of induction of reprogramming
Description: On day 19 of induction of reprogramming, the cells were dissociated into single cells by trypsin, and then stained with 5 μM of CM-H2DCFDA (2,7-dichlorodihydrofluresceindiacetat) at 37° C. for 30 minutes. Cells treated with 100 μM of hydrogen peroxide (H2O2) were used as a positive control group for the formation of reactive oxygen species, and the degree of fluorescence staining was measured by flow cytometry and quantified.

[4] = test system: H9 human embryonic stem cells; test: Mitochondrial membrane potential of human embryonic stem cells by JC-1 staining; type: cell-based; conditions: 0.1 mM nicotinamide in mTeSR1
Description: In an example of the present invention, the membrane potential (ΔΨm) of mitochondria was measured after treatment with nicotinamide. When human embryonic stem cells were maintained and cultured, the membrane potential of mitochondria in the human embryonic stem cells was measured by JC-1 staining after addition of various concentrations of nicotinamide to mTeSR1. After JC-1 staining, activated mitochondria are stained with red, and non-activated mitochondria are stained with green. The ratio of the number of red-stained mitochondria to the number of green-stained mitochondria is measured, and an increase in the ratio indicates an increase in activated mitochondria.
In addition, the present inventors measured the membrane potential (ΔΨm) of mitochondria. When human embryonic stem cells were maintained and cultured, various concentrations of nicotinamide were added to mTeSR1, and then the mitochondrial membrane potential of the human embryonic stem cells was measured by JC-1 staining. After JC-1 staining, activated mitochondria are stained with red, and non-activated mitochondria are stained with green. The ratio of the number of red-stained mitochondria to the number of green-stained mitochondria is measured, and an increase in the ratio indicates an increase in the number of activated mitochondria.

[5] = from day 5 of culture, compared to untreated group

NC(=O)c1cccnc1 [nicotinamide]
period of time required until hiPSCs colonies ([1]; cells treated with nicotinamide, 3 weeks or more generally required): ≤ 2 weeks
increase in expression level of stem cell marker Nanog (immunostaining) [1, 5]: 3 times
increase in expression level of stem cell marker Tra-1-60 (immunostaining) [1, 5]: 8 times
mRNA expression levels of Nanog and TERT ([1]; from day 7, real-time PCR): rapidly increased
mRNA and protein expression levels of p53, p21 and p16 (p53, p21 and p16; 1 mM, reprogramming process): significantly decreased
inhibition of expression of senescence factors p53, p27, p21 and p16 (p53, p21 and p16; high concentration (20 mM)): did not appear
methylation of lysine residue 4 of histone 3 in promoter regions of Nanog and Oct4 [2]: increased
methylation of residue 27 of histone 3 in promoter regions of Nanog and Oct4 [2]: decreased
formation of reactive oxygen species [3]: inhibited
number of activated mitochondria / mitochondrial membrane potential (JC-1 red/green) [4]: significantly increased
